Reference: US20150057344A1, “PELTATIN FOR THE TREATMENT OF CHRONIC INFLAMMATORY DISORDERS” (priority 2012, published 2015)

Columns and labels:
PPARγ = experiment: hPPARg reporter bioassay (Gal4-hPPAR / UAS-luciferase) in HeLa cells; type: cell-based; settings: human HeLa cells, dose response
Excerpt: (§1) In more detail, when PPARs fix their ligands they are able to shuttle from cytoplasm to the nucleus of HeLa cells. Then, PPARs heterodimerize with co-receptors called Retinoid-X-Receptors (RXR). Heterodimeric transcription factors PPAR/RXR are responsible for PPARs-mediated transcriptional program. In this system, hPPARs are fused to Gal4. Gal4 is a yeast transcription activator which specifically binds a Gal4 responsive element so-called Upstream Activation Sequence (UAS)— this short section in a promoter region strongly activates gene transcription. Therefore, cotransfection of Gal4-hPPARs with UAS-luciferase constructs allows identification hPPARs agonists. Agonists will stimulate luciferase transcription resulting in the formation of a functional enzyme that converts substrate to detectable signal by a chemiluminescent reaction.
(§2) The assays detect binding of a ligand to the hPPAR of interest by directly measuring luciferase activity. When PPARs fixe their ligands they are able to shuttle from cytoplasm to the nucleus of HeLa cells. Then, PPARs heterodimerize with co-receptors called Retinoid-X-Receptors (RXR). […]
(§3) An edible plant fraction library was tested for PPARs agonist activity and toxicity. Then relevant plant fractions were further analyzed and bioactive(s) characterized and validated with the same hPPARa, hPPARg or hPPARd reporter bioassays. […]

PPARα = experiment: hPPARa reporter bioassay (Gal4-hPPAR / UAS-luciferase) in HeLa cells; type: cell-based; settings: human HeLa cells, dose response
Excerpt: as §1, §2, §3

HeLa cells = experiment: Cellular toxicity, standard method, compared to untreated cells; type: cell-based, human; settings: up to highest dose used
Method: The AC50 (upper part of the insert) and the maximum % activation (lower part of the insert) are given. Cellular toxicity was also assessed with standard method compared to untreated cells and shown in % of toxicity.
An edible plant fraction library was tested for PPARs agonist activity and toxicity. Then relevant plant fractions were further analyzed and bioactive(s) characterized and validated with the same hPPARa, hPPARg or hPPARd reporter bioassays. The reporter bioassay we used in order to identify anti-inflammatory plant properties targeted activation of human PPARs in human HeLa cells (as described in the FIG. 1). All isolated bioactives were tested in a dose response manner in duplicate. Assays were repeated 3-4 times. Shown are mean values obtained. Therefore specificity (for all the three known human PPAR receptors namely PPARα, PPARd and PPARg) and efficacy (full agonist i.e. % maximal activity >100% or partial agonist i.e. % maximal activity <100%) were tested (FIG. 2-4).

Compound | agonistic activity on PPARγ (PPARγ) | agonistic activity on PPARα (PPARα) | cellular toxicity (% of toxicity) (HeLa cells; FIG. 2, alongside PPARα activation dose-response) | cellular toxicity (% of toxicity) (HeLa cells; FIG. 3, alongside PPARg activation dose-response) | cellular toxicity (% of toxicity) (HeLa cells; FIG. 4, alongside PPARd activation dose-response)
COc1cc([C@@H]2c3cc4c(cc3[C@H](O)[C@H]3COC(=O)[C@H]23)OCO4)cc(OC)c1OC [podophyllotoxin] | dual agonistic activity | dual agonistic activity |  |  | 
COc1cc([C@@H]2c3cc4c(c(O)c3C[C@H]3COC(=O)[C@@H]32)OCO4)cc(OC)c1OC [β-peltatin] | dual agonistic activity | dual agonistic activity | no toxicity was observed | no toxicity was observed | no toxicity was observed
